Experiment [1] in a line: A Cell-Based Confirmatory Screen for Compounds that Inhibit VEEV, TC-83 (8). The experiment is classed as functional.
Experiment [2] in a line: A Cell-Based Confirmatory Screen for Compounds that Inhibit VEEV, TC-83 (5). In kind it is functional.
A short description of experiment [3]: A Cell-Based Confirmatory Screen for Compounds that Inhibit VEEV TC-83 (4). In kind it is functional.
The nature of experiment [4]: Late-stage results from the probe development effort to identify antagonists of arginine vasopressin receptor 1a (AVPR1a): fluorescence-based cell-based dose response AVPR1a inhibition assay. The experiment is classed as functional.
Another experiment has as its target Vasopressin V1b receptor (Homo sapiens, UniProt P47901). The experiment in a line: Late-stage results from the probe development effort to identify antagonists of arginine vasopressin receptor 1a (AVPR1a): fluorescence-based cell-based dose response AVPR1b inhibition counterscreen assay. The experiment is classed as functional.
Another experiment has as its target Vasopressin V2 receptor (Homo sapiens, UniProt P30518). The experiment in a line: Late-stage results from the probe development effort to identify antagonists of arginine vasopressin receptor 1a (AVPR1a): fluorescence-based cell-based dose response AVPR2 inhibition counterscreen assay. The experiment is classed as functional.
A short description of experiment [5]: Late-stage results from the probe development effort to identify antagonists of arginine vasopressin receptor 1a (AVPR1a): fluorescence-based cell-based dose response OXTR inhibition counterscreen assay. The experiment is classed as functional.
A short description of experiment [6]: anti-trypanosomal activity in BESM host cells – imaging, CA-I/72 strain, bovine embryo skeletal muscle, dry powder, dose response (AID 651885). In kind it is functional, cell-based.
Experiment [7] in a line: inhibitors of non-replicating M. tuberculosis, dose response, luciferase, dry powder (AID 651619). In kind it is functional. Conditions: Mycobacterium tuberculosis.
A short description of experiment [8]: HepG2 hepatoma cell viability loss – plate reader, dry powder, cytotoxicity control, dose response (AID 651947). The experiment is classed as functional, cell-based.
A short description of experiment [9]: inhibitors of non-replicating M. tuberculosis, dose response, luciferase, dry powder (AID 651620). The experiment is classed as functional. Conditions: Mycobacterium tuberculosis.
A short description of experiment [10]: growth inhibition of replicating M. tuberculosis, dose response, counter-screen, dry powder, IC90 (AID 651617). In kind it is functional. Conditions: Mycobacterium tuberculosis.
In experiment [11] the target is T1, Oxysterols receptor LXR-beta (Homo sapiens, UniProt P55055).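 Note: agonist activity at LXR measured by a cell-based luminescence readout across a dose range, run as a counterscreen for daf-12 agonists; HEK293 cells with Gal4-LXR fusion and GAL4-driven luciferase reporter; potency for activation of Gal4-LXR reporter so compounds are agonists.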
T1 sequence (P55055 whole entry): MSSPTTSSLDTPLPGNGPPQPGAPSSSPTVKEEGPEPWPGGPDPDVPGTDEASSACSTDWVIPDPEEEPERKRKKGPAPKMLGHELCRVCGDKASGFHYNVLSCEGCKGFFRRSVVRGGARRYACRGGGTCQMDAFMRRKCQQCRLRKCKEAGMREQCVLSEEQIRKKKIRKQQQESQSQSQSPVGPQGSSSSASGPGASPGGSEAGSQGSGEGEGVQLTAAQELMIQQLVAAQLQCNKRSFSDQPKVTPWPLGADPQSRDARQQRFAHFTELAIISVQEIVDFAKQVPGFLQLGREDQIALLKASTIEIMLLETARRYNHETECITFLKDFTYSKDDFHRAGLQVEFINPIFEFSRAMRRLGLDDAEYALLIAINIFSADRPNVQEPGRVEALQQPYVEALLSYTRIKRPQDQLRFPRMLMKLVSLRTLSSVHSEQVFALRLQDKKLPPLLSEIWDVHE
The experiment is classed as functional, cell-based.

A short description of experiment [12]: activation of miR-122 Renilla sensor silencing – cell-based, Huh7 psiCHECK-miR122, Renilla luciferase, cherry-picked, dose response (AID 651956).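 Note: huh7 hepatoma cells stably carrying a psiCHECK-2 miR-122 sensor plasmid; renilla luciferase signal reporting endogenous miR-122 activity after 48 h compound exposure.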 In kind it is functional.
Experiment [13] can be described thus: general mammalian cell viability loss – activator set, cherry-pick, cytotoxicity control for miR-122 modulator project, dose response (AID 720690).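 Note: HEK293T human cells scored for general mammalian cytotoxicity.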 The experiment is classed as functional, cell-based.
Experiment [14] in a line: P. falciparum Dd2 growth inhibitors, dose response, SYBR Green, cherry-picked samples (AID 1159567). The experiment is classed as functional, cell-based.
A short description of experiment [15]: toxicity to human hepatoma HepG2 cells – cell-based, cherry-picked samples, cytotoxicity control, dose response (AID 1159577). The experiment is classed as functional.
Experiment [16] in a line: Dd2 parasite growth inhibition in erythrocytes – SYBR Green, dry powder samples, set 9, dose response (AID 1159568). In kind it is functional, cell-based.
A short description of experiment [17]: Dd2 parasite growth inhibition in erythrocytes – SYBR Green, dry powder samples, set 4, dose response (AID 1159572). In kind it is functional, cell-based.
Experiment [18] is described as follows: antimalarial activity against Dd2 parasites – SYBR Green fluorescence, erythrocytes, dry powder, set 2, dose response (AID 1159574). The experiment is classed as functional, cell-based.
For another experiment, the system named is HeLa. As to the kind of experiment: viability loss in HeLa cells – cell-based, ATP luminescence, cherry-pick samples, cytotoxicity control, dose response (AID 687004). The experiment is classed as functional. Particulars: Homo sapiens.
A short description of experiment [19]: IC50 of insulin release inhibition, rat insulinoma INS-1E line, 5 mM glucose, cell-based (AID 1117331). In kind it is functional.

The source of these data is ChEMBL document CHEMBL1201862, “PubChem BioAssay data set” (2004).

Where a name gives a salt, the structure may show the parent alone. Activity calls are given as the source filed them.

Vasopressin V1b receptor, sequence (P47901 whole entry): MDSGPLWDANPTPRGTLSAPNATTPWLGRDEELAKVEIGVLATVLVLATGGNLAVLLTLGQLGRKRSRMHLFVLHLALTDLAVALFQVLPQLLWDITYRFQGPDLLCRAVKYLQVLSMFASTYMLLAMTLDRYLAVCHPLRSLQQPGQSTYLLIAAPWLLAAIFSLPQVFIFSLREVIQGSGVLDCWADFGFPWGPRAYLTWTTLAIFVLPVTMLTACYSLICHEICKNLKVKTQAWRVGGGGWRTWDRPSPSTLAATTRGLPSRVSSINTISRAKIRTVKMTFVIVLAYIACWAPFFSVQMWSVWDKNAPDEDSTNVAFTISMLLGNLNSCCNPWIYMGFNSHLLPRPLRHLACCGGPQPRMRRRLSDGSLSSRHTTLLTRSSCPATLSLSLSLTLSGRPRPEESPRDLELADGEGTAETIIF
Vasopressin V2 receptor, sequence (P30518 whole entry): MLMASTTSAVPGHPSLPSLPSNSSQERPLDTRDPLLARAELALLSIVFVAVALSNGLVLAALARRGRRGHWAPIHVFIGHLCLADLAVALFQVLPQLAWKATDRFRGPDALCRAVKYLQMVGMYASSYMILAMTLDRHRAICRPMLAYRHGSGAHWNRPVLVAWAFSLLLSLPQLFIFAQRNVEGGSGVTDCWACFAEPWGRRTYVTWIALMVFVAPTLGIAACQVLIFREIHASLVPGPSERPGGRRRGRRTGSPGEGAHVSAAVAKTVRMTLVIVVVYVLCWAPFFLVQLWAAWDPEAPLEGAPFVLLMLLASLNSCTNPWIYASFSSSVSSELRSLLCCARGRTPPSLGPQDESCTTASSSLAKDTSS

With `CCN1CCN(Cc2nc3ccc([N+](=O)[O-])cc3c(=O)n2-c2ccccc2)CC1`, the IC50 was 0.32 µM (active) in experiment [1], 0.27 µM (active) in experiment [2] and 0.01 µM (active) in experiment [3].

For `Cc1ccccc1N1CCN(c2nc3ccccc3n2CC2CC2)CC1`, the IC50 was 7.54 µM (active) in experiment [4], 15.5 µM (inactive) on Vasopressin V1b receptor, 19.4 µM (inactive) on Vasopressin V2 receptor and 19.4 µM (inactive) in experiment [5].

Consider `C[C@H]1CN([C@@H](C)CO)C(=O)c2cccc(NC(=O)c3ccncc3)c2O[C@@H]1CN(C)Cc1ccc(C(=O)O)cc1`, for which the IC50 in experiment [6] was > 20 µM (inactive).

For the compound `c1ccc(Cn2cc(CSc3nnc(C4CCCC4)o3)nn2)cc1`, the IC90 in experiment [7] was 4 µM (active); in [9], 4 µM (active); in experiment [10], 250 µM (active). The AC50 in experiment [8] is > 52 µM (inactive).

For `Cc1ccc(/C=N/NC(=O)c2ccccn2)s1`, in [11], the EC50 is > 67.6 µM (inactive).

In the case of `CC(=O)/N=c1\scc(-c2ccccc2)n1-c1cccc(O)c1`, the AC50 is 25.1 µM (active) in experiment [12] and 44.8 µM (active) in [13].

As to `C/C=C/c1ccc([C@@H]2[C@@H]3CN(Cc4cccc(F)c4)C[C@H]2N3)cc1`, the AC50 is 4.24 µM (active) in experiment [14] and 9.58 µM (active) in [15].

For the compound `O=C(Nc1ccccc1F)N1CCCCN2[C@H](C1)[C@@H](c1ccc(/C=C/c3ccccc3)cc1)[C@@H]2CO`, the AC50 in experiment [16] was 7.14 µM (active).

Turning to `COc1ccc2c3c([nH]c2c1)[C@H](CO)N(C(C)=O)CC31CCN(C(=O)Nc2ccc(F)cc2)CC1`, in experiment [17], the AC50 is 0.834 µM (active).

For the compound `COc1ccc(S(=O)(=O)N(C)C[C@@H]2OCc3ccccc3-c3c(n(C)c4ccccc34)C(=O)N([C@H](C)CO)C[C@@H]2C)cc1`, in experiment [18], the AC50 was 6.36 µM (active).

Take `CCCN1CCCC[C@H]1C(=O)Nc1c(C)cccc1C` [ROPIVACAINE HYDROCHLORIDE]: in the experiment with HeLa, the AC50 was > 52 µM (inactive). In [19], the IC50 is > 33.3 µM (inactive).
